Reference: ChEMBL document CHEMBL3885861, “Open TG-GATES”

Species on record: Rattus norvegicus
Assay: Open TG-GATES - Regimen: Daily Repeat
Type: toxicity, organism-based, Sprague-Dawley
Set-up: regimen Daily Repeat, gender Male, age 6 weeks
Conditions: in vivo, po, route gavage; for Eos / Fbg / Ht / Lym / MCHC / MCV / Mono / Neu / RBC / Ret / WBC / APTT / Bas / PT / Hb: tissue Blood; for KIDNEY_L / KIDNEY_R / KIDNEY_TOTAL: tissue Kidney; for ALP / ALT / AST / BUN / CRE / Ca / Cl / DBIL / GLC / IP / K / PL / RALB / TBIL / TC / TG / TP / gamma-GTP: tissue Plasma
[1] = 60 mg/kg, 72 h, dose level Middle, time 3 day
[2] = 60 mg/kg, […], dose level Middle, time 7 day
[3] = 60 mg/kg, […], dose level Middle, time 14 day
[4] = 60 mg/kg, […], dose level Middle, time 28 day
[5] = 200 mg/kg, 72 h, dose level High, time 3 day
[6] = 200 mg/kg, […], dose level High, time 7 day
[7] = 200 mg/kg, […], dose level High, time 14 day
[8] = 200 mg/kg, […], dose level High, time 28 day

## CCCCC1C(=O)N(c2ccccc2)N(c2ccccc2)C1=O [PHENYLBUTAZONE]
[1]
  Eos: 1.2%
  Fbg: 234.2 mg/dL
  Ht: 42.3%
  Lym: 76.2%
  MCHC: 33.5%
  MCV: 63.4 fL
  Mono: 6.4%
  Neu: 16.4%
  RBC: 667.4 x10_4/ul
  Ret: 6.7%
  WBC: 119.1 x10_2/uL
  KIDNEY_L: 1 g
  KIDNEY_R: 1 g
  KIDNEY_TOTAL: 2 g
  ALP: 957.4 IU/L
  ALT: 35.6 IU/L
  AST: 57.6 IU/L
  BUN: 18.4 mg/dL
  CRE: 0.6 mg/dL
  Ca: 10.5 mg/dL
  Cl: 105.6 meq/L
  DBIL: 0.006 mg/dL
  GLC: 199.4 mg/dL
  IP: 7.9 mg/dL
  K: 4.7 meq/L
  PL: 167.6 mg/dL
  RALB: 4 g/dL
  TBIL: 0.3 mg/dL
  TC: 92 mg/dL
  TG: 136.8 mg/dL
  TP: 6.1 g/dL
  gamma-GTP: 1 IU/L
[2]
  TERMINAL_BW: 272.5 g
  APTT: 16.2 s
  Bas: 0%
  Eos: 0.4%
  Fbg: 231 mg/dL
  Ht: 42.2%
  Lym: 86.2%
  MCHC: 33.6%
  MCV: 64.2 fL
  Mono: 4.2%
  Neu: 9%
  PT: 11.7 s
  RBC: 657.4 x10_4/ul
  Ret: 5.4%
  WBC: 186.6 x10_2/uL
  KIDNEY_L: 1.1 g
  KIDNEY_R: 1.1 g
  KIDNEY_TOTAL: 2.2 g
  ALP: 845.8 IU/L
  ALT: 37.4 IU/L
  AST: 65 IU/L
  BUN: 20.8 mg/dL
  CRE: 0.5 mg/dL
  Ca: 10.7 mg/dL
  Cl: 106.6 meq/L
  DBIL: 0 mg/dL
  GLC: 195.8 mg/dL
  IP: 8.5 mg/dL
  K: 5 meq/L
  PL: 161 mg/dL
  RALB: 4 g/dL
  TBIL: 0.3 mg/dL
  TC: 79 mg/dL
  TG: 166.8 mg/dL
  TP: 6.7 g/dL
  gamma-GTP: 1.4 IU/L
[3]
  TERMINAL_BW: 313.9 g
  APTT: 16.5 s
  Bas: 0%
  Eos: 0.6%
  Fbg: 227.6 mg/dL
  Hb: 14.9 g/dL
  Ht: 44.5%
  Lym: 86%
  MCHC: 33.5%
  MCV: 60.4 fL
  Mono: 4%
  Neu: 9.4%
  RBC: 736.4 x10_4/ul
  Ret: 4.4%
  WBC: 167.1 x10_2/uL
  KIDNEY_L: 1.3 g
  KIDNEY_R: 1.3 g
  KIDNEY_TOTAL: 2.6 g
  ALP: 877.8 IU/L
  ALT: 36.4 IU/L
  AST: 65 IU/L
  BUN: 20.8 mg/dL
  CRE: 0.6 mg/dL
  Ca: 10.6 mg/dL
  Cl: 107 meq/L
  DBIL: 0.002 mg/dL
  GLC: 189.4 mg/dL
  IP: 8.3 mg/dL
  K: 4.5 meq/L
  RALB: 4 g/dL
  TBIL: 0.3 mg/dL
  TC: 64 mg/dL
  TG: 138 mg/dL
  TP: 6.3 g/dL
  gamma-GTP: 1.8 IU/L
[4]
  TERMINAL_BW: 407.1 g
  APTT: 15.9 s
  Bas: 0%
  Eos: 0.6%
  Fbg: 246.5 mg/dL
  Hb: 15.3 g/dL
  Ht: 45.9%
  Lym: 86%
  MCHC: 33.4%
  MCV: 58.4 fL
  Mono: 3%
  RBC: 786.6 x10_4/ul
  Ret: 2.6%
  WBC: 129.4 x10_2/uL
  KIDNEY_L: 1.4 g
  KIDNEY_R: 1.4 g
  KIDNEY_TOTAL: 2.9 g
  ALP: 605.8 IU/L
  ALT: 44.2 IU/L
  AST: 70.8 IU/L
  BUN: 22.2 mg/dL
  CRE: 0.6 mg/dL
  Ca: 10.7 mg/dL
  Cl: 105.2 meq/L
  DBIL: 0.006 mg/dL
  GLC: 189.8 mg/dL
  IP: 7.7 mg/dL
  K: 4.6 meq/L
  PL: 161.8 mg/dL
  RALB: 4.3 g/dL
  TBIL: 0.4 mg/dL
  TC: 76.4 mg/dL
  TG: 280.8 mg/dL
  TP: 6.8 g/dL
  gamma-GTP: 1.2 IU/L
[5]
  TERMINAL_BW: 224.8 g
  APTT: 17.7 s
  Bas: 0%
  Eos: 1%
  Fbg: 309.8 mg/dL
  Hb: 12.5 g/dL
  Ht: 37.3%
  Lym: 74.4%
  MCHC: 33.5%
  MCV: 63.9 fL
  Mono: 9.4%
  Neu: 15.8%
  PT: 11.7 s
  RBC: 586.8 x10_4/ul
  Ret: 8.1%
  WBC: 200.4 x10_2/uL
  KIDNEY_L: 1.1 g
  KIDNEY_R: 1.1 g
  KIDNEY_TOTAL: 2.2 g
  ALP: 627.8 IU/L
  ALT: 27 IU/L
  AST: 55.2 IU/L
  BUN: 20.4 mg/dL
  CRE: 0.6 mg/dL
  Ca: 10.2 mg/dL
  Cl: 106 meq/L
  DBIL: 0 mg/dL
  GLC: 189.2 mg/dL
  IP: 7 mg/dL
  K: 5.1 meq/L
  RALB: 3.3 g/dL
  TBIL: 0.2 mg/dL
  TC: 81.8 mg/dL
  TG: 168.6 mg/dL
  TP: 5.8 g/dL
  gamma-GTP: 2.2 IU/L
[6]
  TERMINAL_BW: 254.1 g
  APTT: 17.1 s
  Bas: 0%
  Eos: 1%
  Fbg: 250 mg/dL
  Hb: 13.4 g/dL
  Ht: 40.3%
  Lym: 77%
  MCHC: 33.4%
  MCV: 63.9 fL
  Mono: 4.6%
  Neu: 17.6%
  PT: 11.7 s
  RBC: 631.8 x10_4/ul
  Ret: 7.4%
  WBC: 199.8 x10_2/uL
  KIDNEY_L: 1.1 g
  KIDNEY_R: 1.1 g
  KIDNEY_TOTAL: 2.2 g
  ALP: 763 IU/L
  ALT: 32 IU/L
  AST: 57.4 IU/L
  BUN: 20.2 mg/dL
  CRE: 0.6 mg/dL
  Ca: 10.7 mg/dL
  Cl: 105 meq/L
  DBIL: 0 mg/dL
  GLC: 201 mg/dL
  IP: 8.4 mg/dL
  K: 4.8 meq/L
  RALB: 3.9 g/dL
  TBIL: 0.3 mg/dL
  TC: 75.4 mg/dL
  TG: 113.8 mg/dL
  TP: 6.6 g/dL
  gamma-GTP: 2.8 IU/L
[7]
  TERMINAL_BW: 296 g
  APTT: 17.5 s
  Bas: 0%
  Eos: 0.4%
  Fbg: 257.2 mg/dL
  Hb: 13.8 g/dL
  Ht: 41.2%
  Lym: 78.8%
  MCHC: 33.4%
  MCV: 59.6 fL
  Mono: 4.4%
  Neu: 16.2%
  RBC: 692.2 x10_4/ul
  Ret: 5.8%
  WBC: 162.2 x10_2/uL
  KIDNEY_L: 1.2 g
  KIDNEY_R: 1.2 g
  KIDNEY_TOTAL: 2.4 g
  ALP: 719.2 IU/L
  ALT: 30.4 IU/L
  AST: 63 IU/L
  BUN: 26.6 mg/dL
  CRE: 0.6 mg/dL
  Ca: 10.7 mg/dL
  Cl: 106.2 meq/L
  DBIL: 0.008 mg/dL
  GLC: 184.6 mg/dL
  IP: 8.4 mg/dL
  K: 4.3 meq/L
  RALB: 3.9 g/dL
  TBIL: 0.4 mg/dL
  TC: 69.6 mg/dL
  TG: 147.6 mg/dL
  TP: 6.4 g/dL
  gamma-GTP: 1.2 IU/L
[8]
  TERMINAL_BW: 348.8 g
  APTT: 15.6 s
  Bas: 0%
  Eos: 0.4%
  Fbg: 273 mg/dL
  Hb: 13.3 g/dL
  Ht: 39.7%
  Lym: 76%
  MCHC: 33.4%
  MCV: 58 fL
  Mono: 3%
  Neu: 20.4%
  RBC: 684.8 x10_4/ul
  Ret: 6.4%
  WBC: 184.3 x10_2/uL
  KIDNEY_L: 1.4 g
  KIDNEY_R: 1.5 g
  KIDNEY_TOTAL: 2.9 g
  ALP: 413 IU/L
  ALT: 28.2 IU/L
  AST: 57.2 IU/L
  BUN: 24.2 mg/dL
  CRE: 0.6 mg/dL
  Ca: 10.5 mg/dL
  Cl: 106.8 meq/L
  DBIL: 0.02 mg/dL
  GLC: 174.2 mg/dL
  IP: 7.4 mg/dL
  K: 4.4 meq/L
  RALB: 3.9 g/dL
  TBIL: 0.3 mg/dL
  TC: 72.2 mg/dL
  TG: 166.2 mg/dL
  TP: 6.1 g/dL
  gamma-GTP: 1.8 IU/L
